Results published in US12637425B2, “Compounds and formulations for treating ophthalmic diseases” (Visus Therapeutics, Inc., priority 2020, dated 2026).

Target: T1, Recombinant cryAB(R120G) protein (Homo sapiens, UniProt P02511, R120G)
T1 sequence (P02511 1-175 R120G): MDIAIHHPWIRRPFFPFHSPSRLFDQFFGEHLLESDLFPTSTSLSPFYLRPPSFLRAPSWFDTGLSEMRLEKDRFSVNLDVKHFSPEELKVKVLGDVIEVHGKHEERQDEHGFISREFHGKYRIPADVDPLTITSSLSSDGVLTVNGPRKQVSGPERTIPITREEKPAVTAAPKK
Assay: Kinetic turbidity aggregation assay of recombinant cryAB(R120G)
Assay type: biochemical
Conditions: for inhibition at 25 µM / % Inhibition of Protein Aggregation, 25 μM cmpd: 25 μM compound; for inhibition at 25 µM: read-out: % Inhibition of Protein Aggregation, 25 μM cmpd; for inhibition at 100 µM: read-out: % Inhibition of Protein Aggregation, 100 μM cmpd; for inhibition at 400 µM: 400 μM compound, read-out: % Inhibition of Protein Aggregation, 400 μM cmpd; for IC50: inhibition of cryAB(R120G) protein aggregation
Method: Example A-1: Kinetic Turbidity Aggregation Assay of Recombinant cryAB(R120)
Recombinant cryAB(R120G) protein was diluted to 100 μM in assay buffer (50 mM Tris, 100 mM NaCl, 5 mM DTT, 0.01% Triton X-100, 0.05% PEG-8000). Compounds were dissolved in DMSO at 10 mM then typically diluted to 2.5 mM in DMSO and serially diluted 2-fold as necessary. To a 384-well black microplate in quadruplicate was added 81 μL assay buffer, followed by 15 μL protein solution, and 4 μL compound to give a final concentration of 15 μM cryAB(R120G) protein in 4% DMSO. […] N.D. is not determined.

[1] = 15 μM cryAB(R120G), 42° C., absorbance at 550 nm
[2] = 100 μM compound, 15 μM cryAB(R120G), 42° C., absorbance at 550 nm

Row | inhibition at 25 µM [1] | inhibition at 100 µM [2] | inhibition at 400 µM [1] | IC50 | % Inhibition of Protein Aggregation, 25 μM cmpd [1] | % Inhibition of Protein Aggregation, 100 μM cmpd [2] | SMILES
1 | 33% | 99.6% |  | 50 to 100 µM |  |  | C[C@@H]1CCCN1[C@@H](CNS(=O)(=O)c1ccc2cc[nH]c2c1)c1cn(C)c2ccccc12 [Compound 55, N-((R)-2-(1-methyl-1H-indol-3-yl)-2-((R)-2-methylpyrrolidin-1-yl)ethyl)-1H-indole-6-sulfonamide]
2 | 1% | 26% |  |  |  |  | Cn1cc([C@H](CNS(=O)(=O)c2ccc3cc[nH]c3c2)N2CCCC2)c2ccncc21 [Compound 83, (R)-N-(2-(1-methyl-1H-pyrrolo[2,3-c]pyridin-3-yl)-2-(pyrrolidin-1-yl)ethyl)-1H-indole-6-sulfonamide]
3 | 92.8% | 99.9% |  | ≤ 10 µM |  |  | CCN(C)C(CNS(=O)(=O)c1ccc2cc[nH]c2c1)c1cn(C)c2ccccc12 (stereo not drawn) [Compound 37, N-(2-(ethyl(methyl)amino)-2-(1-methyl-1H-indol-3-yl)ethyl)-1H-indole-6-sulfonamide]
4 | 69% | 99.9% |  | 10 to 50 µM |  |  | Cn1cc(C(CNS(=O)(=O)c2ccc3cc[nH]c3c2)N2CCCCC2)c2ccccc21 (stereo not drawn) [Compound 29, N-(2-(1-methyl-1H-indol-3-yl)-2-(piperidin-1-yl)ethyl)-1H-indole-6-sulfonamide]
5 | -28% | 82% |  |  |  |  | Cn1cc(C(CNS(=O)(=O)c2ccc3cc[nH]c3c2)N2CCOCC2)c2ccccc21 (stereo not drawn) [Compound 30, N-(2-(1-methyl-1H-indol-3-yl)-2-morpholinoethyl)-1H-indole-6-sulfonamide]
6 | 18% | 82.5% |  |  |  |  | CN1CCN(C(CNS(=O)(=O)c2ccc3cc[nH]c3c2)c2cn(C)c3ccccc23)CC1 (stereo not drawn) [Compound 39, N-(2-(1-methyl-1H-indol-3-yl)-2-(4-methylpiperazin-1-yl)ethyl)-1H-indole-6-sulfonamide]
7 | 98.4% | 99.7% |  | ≤ 10 µM |  |  | Cn1nc([C@@H](CNS(=O)(=O)c2ccc3cc[nH]c3c2)N2CCCC2)c2ccccc21 [Compound 89, (R)-N-(2-(1-methyl-1H-indazol-3-yl)-2-(pyrrolidin-1-yl)ethyl)-1H-indole-6-sulfonamide]
8 | -10% | 99.2% |  |  |  |  | CO[C@@H]1CCN([C@@H](CNS(=O)(=O)c2ccc3cc[nH]c3c2)c2cn(C)c3ccccc23)C1 [Compound 75, N-((R)-2-((R)-3-methoxypyrrolidin-1-yl)-2-(1-methyl-1H-indol-3-yl)ethyl)-1H-indole-6-sulfonamide]
9 | 95% | 69.3% |  |  |  |  | Cn1cc(C(CNS(=O)(=O)c2ccc3cc[nH]c3c2)N2CC[C@@H](F)C2)c2ccccc21 (stereo partly drawn) [Compound 45, N-(2-((R)-3-fluoropyrrolidin-1-yl)-2-(1-methyl-1H-indol-3-yl)ethyl)-1H-indole-6-sulfonamide]
10 | 23% | 70% |  |  |  |  | Cn1cc(C(CNS(=O)(=O)c2ccc3cc[nH]c3c2)N2C[C@H]3COC[C@H]3C2)c2ccccc21 (stereo in doubt) [Compound 31, N-(2-(1-methyl-1H-indol-3-yl)-2-(trans-tetrahydro-1H-furo[3,4-c]pyrrol-5(3H)-yl)ethyl)-1H-indole-6-sulfonamide]
11 | 9% | 95.4% |  |  |  |  | C[C@H]1CCCN1[C@H](CNS(=O)(=O)c1ccc2cc[nH]c2c1)c1cn(C)c2ccccc12 [Compound 64, N-((S)-2-(1-methyl-1H-indol-3-yl)-2-((S)-2-methylpyrrolidin-1-yl)ethyl)-1H-indole-6-sulfonamide]
12 | -41% | 66% |  |  |  |  | Cn1cc(C(CNS(=O)(=O)c2ccc3cc[nH]c3c2)N2CCCC2)c2ncccc21 (stereo not drawn) [Compound 54, N-(2-(1-methyl-1H-pyrrolo[3,2-b]pyridin-3-yl)-2-(pyrrolidin-1-yl)ethyl)-1H-indole-6-sulfonamide]
13 | 23% | 76.9% |  |  |  |  | C[C@H]1CCCN1C(CNS(=O)(=O)c1ccc2cc[nH]c2c1)c1cn(C)c2ccccc12 (stereo partly drawn) [Compound 48]
14 | -39% | 53.1% |  |  |  |  | CC(=O)N[C@@H]1CCN(C(CNS(=O)(=O)c2ccc3cc[nH]c3c2)c2cn(C)c3ccccc23)C1 (stereo partly drawn) [Compound 62, N-((3R)-1-(2-(1H-indole-6-sulfonamido)-1-(1-methyl-1H-indol-3-yl)ethyl)pyrrolidin-3-yl)acetamide]

Further lines, the compound ahead of its results:

Row | SMILES | inhibition at 25 µM [1] | inhibition at 100 µM [2] | inhibition at 400 µM [1] | IC50 | % Inhibition of Protein Aggregation, 25 μM cmpd [1] | % Inhibition of Protein Aggregation, 100 μM cmpd [2]
15 | CCn1cc(C(CNS(=O)(=O)c2ccc3cc[nH]c3c2)N(C)C)c2ccccc21 (stereo not drawn) [Compound 2, N-(2-(dimethylamino)-2-(1-ethyl-1H-indol-3-yl)ethyl)-1H-indole-6-sulfonamide] | 88% | 99.4% | 95% | ≤ 10 µM |  | 
16 | CN(C)C(CNS(=O)(=O)c1ccc2cc[nH]c2c1)c1cccc2ncccc12 (stereo not drawn) [Compound 17, N-(2-(dimethylamino)-2-(quinolin-5-yl)ethyl)-1H-indole-6-sulfonamide] | -10.7% | -13% | 63.5% |  |  | 
17 | CN(C)C(CNS(=O)(=O)c1ccc2cc[nH]c2c1)c1cccc2cccnc12 (stereo not drawn) [Compound 57, N-(2-(dimethylamino)-2-(quinolin-8-yl)ethyl)-1H-indole-6-sulfonamide] | 25% | 82.4% |  |  |  | 
18 | CN(C)C(CNS(=O)(=O)c1ccc2cc[nH]c2c1)c1c[nH]c2ccccc12 (stereo not drawn) [Compound 22, N-(2-(dimethylamino)-2-(1H-indol-3-yl)ethyl)-1H-indole-6-sulfonamide] | 57% | 99% | 95.9% |  |  | 
19 | Cn1cc(C(CNS(=O)(=O)c2cccc3[nH]ccc23)N2CCCC2)c2ccccc21 (stereo not drawn) [Compound 28, N-(2-(1-methyl-1H-indol-3-yl)-2-(pyrrolidin-1-yl)ethyl)-1H-indole-4-sulfonamide] |  |  |  |  | 7% | 98.5%
20 | CN1CCN(S(=O)(=O)c2ccc3cc[nH]c3c2)CC1c1cn(C)c2ccccc12 (stereo not drawn) [Compound 4, 3-(4-((1H-indol-6-yl)sulfonyl)-1-methylpiperazin-2-yl)-1-methyl-1H-indole] | 66.7% | 62.8% | 91.8% |  |  | 
21 | CN(C)C(CNS(=O)(=O)c1ccc2cc[nH]c2c1)c1cn(C)c2ccc(Cl)cc12 (stereo not drawn) [Compound 42, N-(2-(5-chloro-1-methyl-1H-indol-3-yl)-2-(dimethylamino)ethyl)-1H-indole-6-sulfonamide] | 91% | 96.2% |  | ≤ 10 µM |  | 
22 | Cn1cc(C(CNS(=O)(=O)c2cccc3[nH]ccc23)N2CCCC2)c2ccccc21 (stereo not drawn) [Compound 27, N-(2-(1-methyl-1H-indol-3-yl)-2-(pyrrolidin-1-yl)ethyl)-1H-indole-4-sulfonamide] |  | 85% |  |  | −35% | 
23 | CC(C)n1cc(C(CNS(=O)(=O)c2ccc3cc[nH]c3c2)N(C)C)c2ccccc21 (stereo not drawn) [Compound 23, N-(2-(dimethylamino)-2-(1-isopropyl-1H-indol-3-yl)ethyl)-1H-indole-6-sulfonamide] |  | 99% | 100% | 10 to 50 µM | 61% | 
24 | CN(C)C(CNS(=O)(=O)c1ccc2ccn(C)c2c1)c1cn(C)c2ccccc12 (stereo not drawn) [Compound 8, N-(2-(dimethylamino)-2-(1-methyl-1H-indol-3-yl)ethyl)-1-methyl-1H-indole-6-sulfonamide] | -37% | -29% | 74.3% |  |  | 
25 | Cn1cc([C@@H](CNS(=O)(=O)c2ccc3cc[nH]c3c2)NCc2cncs2)c2ccccc21 [Compound 84, (S)-N-(2-(1-methyl-1H-indol-3-yl)-2-((thiazol-5-ylmethyl)amino)ethyl)-1H-indole-6-sulfonamide] | 25% | 71.8% |  |  |  | 
26 | CN(C)C(CNS(=O)(=O)c1ccc2ncsc2c1)c1cn(C)c2ccccc12 (stereo not drawn) [Compound 11, N-(2-(dimethylamino)-2-(1-methyl-1H-indol-3-yl)ethyl)benzo[d]thiazole-6-sulfonamide] | -6% | -20% | 20.5% |  |  | 
27 | CN(C)C(CNS(=O)(=O)c1ccc2cc[nH]c2c1)c1cn(Cc2cncs2)c2ccccc12 (stereo not drawn) [Compound 69, N-(2-(dimethylamino)-2-(1-(thiazol-5-ylmethyl)-1H-indol-3-yl)ethyl)-1H-indole-6-sulfonamide] | 58% | 100% |  |  |  | 
28 | COc1ccc2c(c1)c(C(CNS(=O)(=O)c1ccc3cc[nH]c3c1)N(C)C)cn2C (stereo not drawn) [Compound 18, N-(2-(dimethylamino)-2-(5-methoxy-1-methyl-1H-indol-3-yl)ethyl)-1H-indole-6-sulfonamide] | 68% | 52.3% | 98.5% | 10 to 50 µM |  | 
